{"source": "patent US8785471B2", "about": "“Pharmaceutical composition containing ferulic acid and matrine compounds, the preparation and the use thereof” (Qingdao Qiyuan Bio-Technologies Co., Ltd., priority 2008, dated 2014)", "key": {"rats": {"test_system": "rats", "assay": "Alzheimer's disease model rats, learning and memorizing ability in jumping tests", "type": "in vivo", "conditions": "intragastric 50 μg/kg, 7 days, mean ± SD", "procedure": "(§1) Animal grouping, modeling and administration: 57 female Wistar rats (15 month old, 300-450 g, from animal center of Qingdao Institute for Drug Control, fed under normal conditions and natural light with unlimited drink and food) were randomly separated into 6 groups. Rats in normal control group were intraperitoneal injected with physiological saline for 6 weeks and injected physiological saline into the meynert nucleus basalis. Rats in modeling control group were injected intraperitoneally with D-galactose (48 mg/kg/d) for 6 weeks and injected with ibotenic acid into the meynert nucleus basalis. […] The rats in the normal and modeling control groups were intragastrically administrated with physiological saline for consecutive 7 days. 1 hour after the last administration, the learning ability of all the rats; was evaluated. Then, the rats were anesthetized with Pentobarbital. 5 ml blood was collected from abdominal aorta. Immediately the cortex tissue was collected and homogenated with physiological saline into 10% (WN). The AChE activity in cortex tissue and blood was measured according to the reagent kit instructions. • 3. Measurement: testing the memory ability of rats: the rats were placed in an electric box with an escaping platform for 3 minutes to get used to the new environments. The box was then connected to 50V AC. Upon being shocked, the rats can escape the electricity by jumping onto the platform. The shocked times (mistakes) within 5 minutes were recorded as a reference for the learning ability of the rats. After 24 hours, the rats were placed directly on the platform. The latency time for the first jump was recorded as a reference for the memory ability. The shocked times (mistakes) within 5 minutes were also recorded. The latency time of over 5 minutes was considered as 5 minutes.\nT testing method was used to evaluate the difference within different groups, and the difference was statistically significant when P<0.05. • 4. […] P represents statistic difference. *P<0.05 means statistically obvious difference, **P<0.01 statistically significant difference."}, "[1]": {"test_system": "AChE activity in cortex tissue and blood", "conditions": "model rats, intragastric 50 μg/kg, 7 days; mean ± SD", "procedure": "as §1, with “Measurement: testing the memory ability of rats: the rats were placed in an electric box with an escaping platform for 3 minutes to get used to the new environments. The box was then connected to 50V AC. Upon being shocked, the rats can escape the electricity by jumping onto the platform.” left out, “After 24 hours, the rats were placed directly on the platform.” left out, “The latency time of over 5 minutes was considered as 5 minutes.” left out"}}, "note": "Marks after values point to notes of the source that are not given here."}
{"smiles": "C/C=C1\\[C@H]2C=C(C)C[C@]1(N)c1ccc(=O)[nH]c1C2", "note": "[Huperzine A, huperzine A]", "values": [{"measurement": "Latency", "setting": "rats; after 24 hours", "result": "135 ± 55* s"}, {"measurement": "Mistakes within 5 min", "setting": "rats", "result": "4 ± 2.3*"}, {"measurement": "Mistakes within 5 min after 24 hours", "setting": "rats", "result": "2 ± 1.6*"}, {"measurement": "Blood TchE", "setting": "[1]", "result": "48 ± 35* mmol/L"}, {"measurement": "Cortex TchE", "setting": "[1]", "result": "2.0 ± 0.6* μmol/g"}]}
